Test results as given in patent EP0475231A1, “Benzodiazepines” (priority 1990, dated 1992).
Read-outs that look alike come from different tables or passages of the source.

Legend:
[1] = biological target: T1, HIV-1 RT (Human immunodeficiency virus type 1 group M subtype B, UniProt P03366); test: HIV-1 RT inhibition with recombinant DNA-derived enzyme, poly(rA)·oligo(dT)10 template/primer, 3H-TTP incorporation; type: biochemical
T1 construct: made in house
Procedure: Compounds of the present invention were also examined for their ability to inhibit HIV-1 RT using recombinant DNA-derived enzyme (S.F.J. Le Grice and F. Gruninger-Leitch, European Journal of Biochemistry 187:307-314 (1990)) in […] volume assay mixtures. Mixtures contained 50mM Tris-HCl (pH 8.0), 25mM KCl, 4mM MgCl₂, 5mM dithiothreitol (DTT), 0.05% Triton X-100, […] ³H-TTP (2Ci/mmol), 1mg poly(rA)·oligo(dT)₁₀ (20:1) as template/primer, test compound at the desired concentration, and an appropriate quantity of HIV RT, usually 0.01 to 0.1mg. The assay mixtures were incubated at 37°C for 10 minutes and the reactions were stopped by the addition of 10% trichloroacetic acid (TCA). Yeast RNA ([…] per reaction) was added and the reaction products were precipitated at 4°C for 30 minutes. TCA-precipitated material was collected by filtration and the bound radioactivity determined by counting using a liquid scintillation counter. The concentration of compound required to inhibit the activity of HIV-RT by fifty percent (IC₅₀) was determined from a multiple dose-effect analysis program (J. Chou and I. C. Chou, Dose Effect Analysis with Microcomputers, Elsevier Sciences Publishers, Amsterdam 1987).

[2] = tested on: HIV-TAT; test: anti-HIV-TAT assay: SeAP reporter under HIV-LTR versus RSV-LTR in transfected COS cells; type: cell-based; details: 1-50 µM, specific inhibition of SeAP under HIV-LTR minus RSV-LTR, 48 hours after addition, average of at least three tests, grades not defined
Procedure: The compounds of formula I were also tested for anti-HIV-TAT activity in an assay comprising the following steps: • (a) putting both the expression of the Secreted Alkaline Phosphatase (SeAP) gene and the viral transactivator TAT gene under the control of the HIV promoter LTR responsive to the action of the HIV transactivator TAT; • (b) transfecting cultured mammalian cells with plasmids which contain the gene constructs of (a) above and cause cellular production of the transactivating factor TAT and SeAP; • (c) adding the agent to be tested, here the compounds of formula I; and determining the amount of SeAP produced, by measuring SeAP enzymatic activity, whereby inhibition of SeAP production correlates with the anti-TAT inhibition activity.
In this assay, the inhibition of SeAP positively correlates with anti-TAT activity. The greater the ability of an agent to inhibit SeAP, the greater is its anti-TAT activity.
Specifically, with respect to the results reported below, the anti-HIV-TAT assay was run as follows:
At 24 hours post transfection 1, 10, 25 and 50 µM of a test compound of formula I was added to the culture media of COS cells transfected with two plasmids, one containing the reporter gene which codes for SeAP under control of HIV-LTR, and the other containing the HIV-TAT gene also under control of HIV-LTR. The alkaline phosphatase activity of the media was assayed 48 hours after addition of test compound with a colorimetric assay using p-nitrophenylphosphate as the substrate.
The anti-HIV-TAT activities of the test compounds were determined by measuring the amount of alkaline phosphatase in the supernatant media of cultures of cells in which SeAP gene expression was under the control of the HIV LTR promoter. The specific inhibitory activities of the test compounds were calculated according to the formula: 100[(1-A/B)-(1-C/D)] [formula] where A and B are the alkaline phosphatase activites produced by HIV-LTR/SeAP in the presence and absence, respectively, of test compound, and C and D are the alkaline phosphatase activities produced by RSV-LTR/SeAP in the presence and absence, respectively, of test compound. The concentrations tested ranged from 1-50 µM. The results provided are the average of at least three tests. The test compound was added 24 hours after cells were transfected with the plasmids when SeAP specific mRNA and protein were already present and the protein was very stable. […]

[3] = tested on: HIV-1 NIT strain; test: anti-HIV activity test: reduction of immuno-fluorescent positive (viral antigen) cells in infected CD4+ CEM cells; type: cell-based; details: Human immunodeficiency virus 1, CCRF-CEM, 96 h, concentration which reduces the number of immuno-fluorescent positive cells by 50%, MOI 1, four days after infection, read-out: IC₅₀
Procedure: The compounds I were tested for the inhibition of HIV-cytopathic effect and the reduction of cell-associated viral antigens in an experiment run as follows:
High titer virus stocks (HIV-1 NIT strain) were grown in CD₄+ CR10 cells in RMPI-1640 media (Gibco Laboratories) supplemented with 10% fetal calf serum and 0.1 mg/ml Gentamicin. The collected media were filtered and the virus isolates were concentrated 100 fold and stored at -80°C. CD₄+ CEM cells, propagated in the same medium, were incubated for 60 minutes at 37°C with diluted stock virus at multiplicity of infection (MOI) equal to 1. Cells were washed with phosphate buffered saline and resuspended in the medium at 2 x 10⁵ cells/ml. Various quantities of the test compounds in DMSO were added. Four days after infection, the number of live cells were counted by trypan blue exclusion (Proc. Natl. Acad. Sci. 83, 1986, 1911). At the same time, aliquots of cells were fixed with acetone and stained with antibodies from AIDS patients, followed by a second staining with fluorescein-conjugated goat anti-human IgG (Cappel). Cells stained with the fluorescent antibody were counted using a fluorescence microscope and the results were expressed as percentage of the total number of cells counted (J. Med. Virol. 19, 1986, 325).
The results of this anti-HIV activity test, expressed in IC₅₀ (µM), i.e. the concentration of the test compound which reduces the number of immuno-fluorescent positive cells by 50%, are given in Table I below.

[4] = recombinant HIV-1 RT, 37°C, 10 minutes, read-out: IC₅₀

Row | SMILES | IC50 [1, 4] [µM] | Anti-HIV-TAT activity [2] | IC50 [3] [µM] | IC50 [1] [µM]
1 | OC1CCN(C2=Nc3ccc(Cl)cc3C(c3ccc[nH]3)=NC2)C1 (racemic) [3-OH-1-pyrrolidinyl, rac-1-[7-chloro-5-(1H-pyrrol-2-yl)-3H-1,4-benzodiazepin-2-yl]-3-pyrrolidinol] | 6.4 | High | 1 to 5 | –
2 | Clc1ccc2c(c1)C(c1ccc[nH]1)=NCC(N1CCCC1)=N2 [1-pyrrolidinyl, 7-chloro-5-(1H-pyrrol-2-yl)-2-(1-pyrrolidinyl)-3H-1,4-benzodiazepine] | 10.2 | Medium/High | 0.8 to 5 | –
3 | Clc1ccc2c(c1)C(c1ccc[nH]1)=NCC(NCc1ccccc1)=N2 [NHCH₂Ph, 7-chloro-N-(phenylmethyl)-5-(1H-pyrrol-2-yl)-3H-1,4-benzodiazepin-2-amine] | – | Low/Medium | 3 | 2.6
4 | NCCNC1=Nc2ccc(Cl)cc2C(c2ccc[nH]2)=NC1 [NHCH₂CH₂NH₂, N-[7-chloro-5-(1H-pyrrol-2-yl)-3H-1,4-benzodiazepin-2-yl]-1,2-ethanediamine] | – | Medium | – | –
5 | C=CCNC1=Nc2ccc(Cl)cc2C(c2ccc[nH]2)=NC1 [NHCH₂CH=CH₂, 7-chloro-N-(2-propenyl)-5-(1H-pyrrol-2-yl)-3H-1,4-benzodiazepin-2-amine] | – | Low | – | 4.2
6 | CN(C)C1=Nc2ccc(Cl)cc2C(c2ccc[nH]2)=NC1 [N(CH₃)₂, 7-chloro-N,N-dimethyl-5-(1H-pyrrol-2-yl)-3H-1,4-benzodiazepin-2-amine] | – | Medium/High | 1 to 3 | 7.3
7 | Clc1ccc2c(c1)C(c1ccc[nH]1)=NCC(N1CCNCC1)=N2 [1-piperazinyl, 7-chloro-2-(1-piperazinyl)-5-(1H-pyrrol-2-yl)-3H-1,4-benzodiazepine] | 18 | Low | – | –
8 | COC1=Nc2ccc(Cl)cc2C(c2ccc[nH]2)=NC1 [OCH₃, 7-chloro-2-methoxy-5-(1H-pyrrol-2-yl)-3H-1,4-benzodiazepine] | – | Medium | 1 | 1.5
9 | Clc1ccc2c(c1)C(c1ccc[nH]1)=NCC(Nc1ccccc1)=N2 [NHPh, 7-chloro-N-phenyl-5-(1H-pyrrol-2-yl)-3H-1,4-benzodiazepin-2-amine] | – | – | – | 15.8
10 | Clc1ccc2c(c1)C(c1ccc[nH]1)=NCC(NC1CC1)=N2 [NH(cyclopropyl), 7-chloro-N-cyclopropyl-5-(1H-pyrrol-2-yl)-3H-1,4-benzodiazepin-2-amine] | – | Medium | 0.8 | 5.4
11 | COC(CNC1=Nc2ccc(Cl)cc2C(c2ccc[nH]2)=NC1)OC [NHCH₂CH(OCH₃)₂, 7-chloro-N-(2,2-dimethoxyethyl)-5-(1H-pyrrol-2-yl)-3H-1,4-benzodiazepin-2-amine] | – | Medium/High | 1 to 5 | –
12 | Clc1ccc2c(c1)C(c1ccc[nH]1)=NCC(N1CCCCC1)=N2 [1-piperidinyl, 7-chloro-2-(1-piperidinyl)-5-(1H-pyrrol-2-yl)-3H-1,4-benzodiazepine] | 10.4 | Medium/High | 2 | –
13 | CSC1=Nc2ccc(Cl)cc2C(c2ccc[nH]2)=NC1 [SCH₃, 7-chloro-2-(methylthio)-5-(1H-pyrrol-2-yl)-3H-1,4-benzodiazepine] | – | Low/Medium | 5 to 10 | 1.6
14 | OCCNC1=Nc2ccc(Cl)cc2C(c2ccc[nH]2)=NC1 [NHCH₂CH₂OH, 7-chloro-N-(2-hydroxyethyl)-5-(1H-pyrrol-2-yl)-3H-1,4-benzodiazepin-2-amine] | – | Medium | 2 to 5 | 8.9
15 | CCN(CC)C1=Nc2ccc(Cl)cc2C(c2ccc[nH]2)=NC1 [N(CH₂CH₃)₂, 7-chloro-N,N-diethyl-5-(1H-pyrrol-2-yl)-3H-1,4-benzodiazepin-2-amine] | – | Low/Medium | – | –
16 | C#CCNC1=Nc2ccc(Cl)cc2C(c2ccc[nH]2)=NC1 [NHCH₂C≡CH, 7-chloro-N-(2-propynyl)-5-(1H-pyrrol-2-yl)-3H-1,4-benzodiazepin-2-amine] | – | – | – | 2
17 | NNC1=Nc2ccc(Cl)cc2C(c2ccc[nH]2)=NC1 [NHNH₂, 7-chloro-2-hydrazino-5-(1H-pyrrol-2-yl)-3H-1,4-benzodiazepine] | – | High | 1 | –
